Test system: MDA-MB-231 multicell spheroids, viability (%T/C)
Experiment: Anticancer human tumor MDA-MB-231 cell line growth inhibition [IpAb];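 also: viability read after seven days of drug exposure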;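 as to viability, T/C: 100% = DMSO vehicle control viability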
Details: for IC50: curve of first compound; for viability, T/C: stronger effect = lower value
Procedure, shortened: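 Multi-cell spheroids of 60% tumour cells, 25% HUVEC and 15% MSC in ultra-low-attachment U-bottom wells, treated with agents combined with ipatasertib or abemaciclib. Half-log ranges top out near clinical Cmax, or 10 microM when Cmax is unknown.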

[1] = second compound 0.01 µM, first compound 0.0316 µM
[2] = second compound 0.01 µM, first compound 0.1 µM
[3] = second compound 0.01 µM, first compound 0.316 µM
[4] = second compound 0.01 µM, first compound 1 µM
[5] = second compound 0.01 µM, first compound 3.16 µM
[6] = second compound 0.01 µM, first compound 10 µM
[7] = second compound 0.0316 µM, first compound 0.0316 µM
[8] = second compound 0.0316 µM, first compound 0.1 µM
[9] = second compound 0.0316 µM, first compound 0.316 µM
[10] = second compound 0.0316 µM, first compound 1 µM
[11] = second compound 0.0316 µM, first compound 3.16 µM
[12] = second compound 0.0316 µM, first compound 10 µM
[13] = second compound 0.1 µM, first compound 0.0316 µM
[14] = second compound 0.1 µM, first compound 0.1 µM
[15] = second compound 0.1 µM, first compound 0.316 µM
[16] = second compound 0.1 µM, first compound 1 µM
[17] = second compound 0.1 µM, first compound 3.16 µM
[18] = second compound 0.1 µM, first compound 10 µM
[19] = second compound 0.316 µM, first compound 0.0316 µM
[20] = second compound 0.316 µM, first compound 0.1 µM
[21] = second compound 0.316 µM, first compound 0.316 µM
[22] = second compound 0.316 µM, first compound 1 µM
[23] = second compound 0.316 µM, first compound 3.16 µM
[24] = second compound 0.316 µM, first compound 10 µM
[25] = second compound 1 µM, first compound 0.0316 µM
[26] = second compound 1 µM, first compound 0.1 µM
[27] = second compound 1 µM, first compound 0.316 µM
[28] = second compound 1 µM, first compound 1 µM
[29] = second compound 1 µM, first compound 3.16 µM
[30] = second compound 1 µM, first compound 10 µM

C=CC(=O)N1CCN(c2nc(=O)n(-c3c(C)ccnc3C(C)C)c3nc(-c4c(O)cccc4F)c(F)cc23)C(C)C1 (stereo not given) + CCN1CCN(Cc2ccc(Nc3ncc(F)c(-c4cc(F)c5nc(C)n(C(C)C)c5c4)n3)nc2)CC1 was tested. Which IC50 (second compound 0.01 µM) did it give?
Its IC50 is > 10 µM.

What about the IC50 (second compound 0.0316 µM) of the same compound?
The IC50 was > 10 µM.

And the IC50 (second compound 0.1 µM)?
Its IC50 is > 10 µM.

And the IC50 (second compound 0.316 µM)?
Its IC50 is > 10 µM.

And the IC50 (second compound 1 µM)?
The IC50 was > 10 µM.

What about the viability, T/C [1] of the same compound?
The viability, T/C was 91.9%.

And the viability, T/C [2]?
The viability, T/C was 93.1%.

And the viability, T/C [3]?
Its viability, T/C is 107%.

And the viability, T/C [4]?
The viability, T/C was 120%.

What about the viability, T/C [5] of the same compound?
The viability, T/C was 111%.

And the viability, T/C [6]?
Its viability, T/C is 76.3%.

What about the viability, T/C [7] of the same compound?
The viability, T/C was 78.5%.

And the viability, T/C [8]?
Its viability, T/C is 88.4%.

And the viability, T/C [9]?
The viability, T/C was 89.9%.

What about the viability, T/C [10] of the same compound?
Its viability, T/C is 101%.

And the viability, T/C [11]?
The viability, T/C was 92.3%.

What about the viability, T/C [12] of the same compound?
Its viability, T/C is 66.4%.

And the viability, T/C [13]?
The viability, T/C was 61.3%.

What about the viability, T/C [14] of the same compound?
Its viability, T/C is 66.2%.

And the viability, T/C [15]?
The viability, T/C was 73.8%.

And the viability, T/C [16]?
Its viability, T/C is 84.4%.

What about the viability, T/C [17] of the same compound?
The viability, T/C was 74%.

What about the viability, T/C [18] of the same compound?
Its viability, T/C is 59.1%.

What about the viability, T/C [19] of the same compound?
Its viability, T/C is 48.3%.

What about the viability, T/C [20] of the same compound?
Its viability, T/C is 51.3%.

What about the viability, T/C [21] of the same compound?
The viability, T/C was 58.6%.

And the viability, T/C [22]?
Its viability, T/C is 65.9%.

And the viability, T/C [23]?
Its viability, T/C is 60.7%.

And the viability, T/C [24]?
The viability, T/C was 59%.

And the viability, T/C [25]?
The viability, T/C was 50.8%.

And the viability, T/C [26]?
Its viability, T/C is 56.2%.

What about the viability, T/C [27] of the same compound?
The viability, T/C was 61.1%.

And the viability, T/C [28]?
Its viability, T/C is 67.1%.

What about the viability, T/C [29] of the same compound?
The viability, T/C was 71.7%.

What about the viability, T/C [30] of the same compound?
The viability, T/C was 61.8%.

Cn1ncc(Cl)c1-c1cc(C(=O)NC(CN)Cc2cccc(F)c2)sc1Cl (stereo not given) + CCN1CCN(Cc2ccc(Nc3ncc(F)c(-c4cc(F)c5nc(C)n(C(C)C)c5c4)n3)nc2)CC1 was tested. Which IC50 (second compound 0.01 µM) did it give?
Its IC50 is 0.864 µM.

And the IC50 (second compound 0.0316 µM)?
The IC50 was 0.378 µM.

And the IC50 (second compound 0.1 µM)?
Its IC50 is 0.0766 µM.

What about the IC50 (second compound 0.316 µM) of the same compound?
Its IC50 is < 0.0316 µM.

What about the IC50 (second compound 1 µM) of the same compound?
Its IC50 is < 0.0316 µM.

What about the viability, T/C [1] of the same compound?
Its viability, T/C is 87.3%.

And the viability, T/C [2]?
Its viability, T/C is 77.6%.

What about the viability, T/C [3] of the same compound?
Its viability, T/C is 66.7%.

What about the viability, T/C [4] of the same compound?
The viability, T/C was 45.7%.

And the viability, T/C [5]?
Its viability, T/C is 27.5%.

And the viability, T/C [6]?
The viability, T/C was 0.12%.

What about the viability, T/C [7] of the same compound?
The viability, T/C was 73.4%.

What about the viability, T/C [8] of the same compound?
Its viability, T/C is 64.8%.

What about the viability, T/C [9] of the same compound?
The viability, T/C was 51.9%.

And the viability, T/C [10]?
Its viability, T/C is 36.4%.

And the viability, T/C [11]?
Its viability, T/C is 23%.

What about the viability, T/C [12] of the same compound?
The viability, T/C was 0.11%.

What about the viability, T/C [13] of the same compound?
Its viability, T/C is 52.6%.

And the viability, T/C [14]?
Its viability, T/C is 52%.

And the viability, T/C [15]?
The viability, T/C was 40%.

And the viability, T/C [16]?
Its viability, T/C is 30.2%.

And the viability, T/C [17]?
Its viability, T/C is 20.4%.

What about the viability, T/C [18] of the same compound?
The viability, T/C was 0.87%.

And the viability, T/C [19]?
The viability, T/C was 43.4%.

What about the viability, T/C [20] of the same compound?
Its viability, T/C is 42.7%.

What about the viability, T/C [21] of the same compound?
Its viability, T/C is 32.9%.

And the viability, T/C [22]?
Its viability, T/C is 30.5%.

And the viability, T/C [23]?
The viability, T/C was 26%.

What about the viability, T/C [24] of the same compound?
The viability, T/C was 0.53%.

And the viability, T/C [25]?
Its viability, T/C is 44.2%.

What about the viability, T/C [26] of the same compound?
The viability, T/C was 46.3%.

What about the viability, T/C [27] of the same compound?
Its viability, T/C is 43.2%.

And the viability, T/C [28]?
The viability, T/C was 38.7%.

What about the viability, T/C [29] of the same compound?
Its viability, T/C is 43.6%.

What about the viability, T/C [30] of the same compound?
Its viability, T/C is 0.79%.

With Cn1ncnc1[C@H]1c2n[nH]c(=O)c3cc(F)cc(c23)N[C@@H]1c1ccc(F)cc1 + CCN1CCN(Cc2ccc(Nc3ncc(F)c(-c4cc(F)c5nc(C)n(C(C)C)c5c4)n3)nc2)CC1 as the compound, how does the IC50 (second compound 0.01 µM) read?
The IC50 was > 0.1 µM.

What about the IC50 (second compound 0.0316 µM) of the same compound?
The IC50 was > 0.1 µM.

What about the IC50 (second compound 0.1 µM) of the same compound?
Its IC50 is 0.0376 µM.

And the IC50 (second compound 0.316 µM)?
Its IC50 is < 0.000316 µM.

And the IC50 (second compound 1 µM)?
The IC50 was < 0.000316 µM.

And the viability, T/C (second compound 0.01 µM, first compound 0.000316 µM)?
The viability, T/C was 86.5%.

What about the viability, T/C (second compound 0.01 µM, first compound 0.001 µM) of the same compound?
The viability, T/C was 85.5%.

And the viability, T/C (second compound 0.01 µM, first compound 0.00316 µM)?
The viability, T/C was 79.6%.

What about the viability, T/C (second compound 0.01 µM, first compound 0.01 µM) of the same compound?
Its viability, T/C is 70.9%.

And the viability, T/C [1]?
Its viability, T/C is 69.2%.

What about the viability, T/C [2] of the same compound?
Its viability, T/C is 65.9%.

And the viability, T/C (second compound 0.0316 µM, first compound 0.000316 µM)?
Its viability, T/C is 74.8%.

And the viability, T/C (second compound 0.0316 µM, first compound 0.001 µM)?
The viability, T/C was 72.1%.

What about the viability, T/C (second compound 0.0316 µM, first compound 0.00316 µM) of the same compound?
The viability, T/C was 65.2%.

What about the viability, T/C (second compound 0.0316 µM, first compound 0.01 µM) of the same compound?
Its viability, T/C is 60%.

And the viability, T/C [7]?
The viability, T/C was 59.1%.

What about the viability, T/C [8] of the same compound?
Its viability, T/C is 55%.

And the viability, T/C (second compound 0.1 µM, first compound 0.000316 µM)?
Its viability, T/C is 58.8%.

What about the viability, T/C (second compound 0.1 µM, first compound 0.001 µM) of the same compound?
Its viability, T/C is 56.4%.

What about the viability, T/C (second compound 0.1 µM, first compound 0.00316 µM) of the same compound?
The viability, T/C was 51.5%.

And the viability, T/C (second compound 0.1 µM, first compound 0.01 µM)?
Its viability, T/C is 51.1%.

What about the viability, T/C [13] of the same compound?
The viability, T/C was 51.5%.

And the viability, T/C [14]?
Its viability, T/C is 48.7%.

What about the viability, T/C (second compound 0.316 µM, first compound 0.000316 µM) of the same compound?
Its viability, T/C is 46.5%.

What about the viability, T/C (second compound 0.316 µM, first compound 0.001 µM) of the same compound?
The viability, T/C was 46.6%.

And the viability, T/C (second compound 0.316 µM, first compound 0.00316 µM)?
The viability, T/C was 43.9%.

What about the viability, T/C (second compound 0.316 µM, first compound 0.01 µM) of the same compound?
Its viability, T/C is 43.3%.

And the viability, T/C [19]?
The viability, T/C was 42.9%.

And the viability, T/C [20]?
Its viability, T/C is 40.4%.

And the viability, T/C (second compound 1 µM, first compound 0.000316 µM)?
The viability, T/C was 48%.

What about the viability, T/C (second compound 1 µM, first compound 0.001 µM) of the same compound?
Its viability, T/C is 49.3%.

And the viability, T/C (second compound 1 µM, first compound 0.00316 µM)?
Its viability, T/C is 50.2%.

And the viability, T/C (second compound 1 µM, first compound 0.01 µM)?
Its viability, T/C is 46.3%.

What about the viability, T/C [25] of the same compound?
Its viability, T/C is 48.5%.

What about the viability, T/C [26] of the same compound?
Its viability, T/C is 46.9%.

Source: PubChem BioAssay AID2060328 (Molecular Pharmacology Branch, DTP, NCI, 2025)
